Laboratory results taken from patent publication US20240148664A1, “LIPID AND COMPOSITION” (SOGO PHARMACEUTICAL CO., LTD., priority 2021, published 2024).

Legend:
[1] = Measurement of particle size, polydispersity index and zeta potential of lipid nanoparticle (Zetasizer); type: physicochemical; conditions: lipid nanoparticle containing siRNA; for Zeta potential (mV): pH 7.4 Tris-HCl; for Particle size (nm) / PDI: main lipid/DPPC/cholesterol=45/10/45; for Particle size (nm): Z-average in ultrapure water; for PDI: ultrapure water
Protocol: 30 μL of each of the dialyzed lipid nanoparticle-containing solutions obtained by the above operation was measured out, 800 μL of ultrapure water was added to dilute the lipid nanoparticle-containing solution, and the diluted preparation solution was used to measure the particle size (nm) and the polydispersity index (PDI) by using a Zetasizer (manufactured by Malvern Panalytical, Zetasizer nano Ultra). The particle size was evaluated by Z-average in ultrapure water. The zeta potential was measured by using pH 7.4 Tris-HCl as a dilute solution.

[2] = siRNA / mRNA encapsulation rate of lipid nanoparticle (RiboGreen); type: physicochemical; conditions: siRNA encapsulation rate of lipid nanoparticle
Protocol: The siRNA encapsulation rate and the mRNA encapsulation rate of the lipid nanoparticle were obtained as follows. First, a surfactant (Sigma-Aldrich, Triton (registered trademark), X-100 (reducing type)) was added to the lipid nanoparticle-containing solution to disrupt the lipid nanoparticle to release the encapsulated siRNA or mRNA. The amounts of the lipid nanoparticle-containing solution and the surfactant were adjusted such that the siRNA or the mRNA was 2 pmol and the surfactant was 1% in 40 μL of the solution after adding the surfactant to the lipid nanoparticle-containing solution. Next, the RiboGreen reagent (reagent that reacts with siRNA to emit fluorescence, manufactured by Thermo Fisher Scientific, Quant-iT (registered trademark) RiboGreen (registered trademark) RNA Assay Kit) was added to the solution, and the fluorescence intensity was measured under conditions of an excitation wavelength of 480 nm and a fluorescence wavelength of 520 nm with a fluorescence intensity meter (manufactured by TECAN, Infinite M200). Specifically, 75 μL of the RiboGreen reagent diluted to 1/2000 was added to a diluted solution obtained by adding 65 μL of citrate buffer to 10 μL of the solution, and the fluorescence intensity was measured. This makes it possible to relatively measure the total amount of the siRNA or the total amount of the mRNA present in the solution.
Subsequently, the RiboGreen reagent was added to the lipid nanoparticle-containing solution without adding a surfactant, and the fluorescence intensity was measured in the same manner with a fluorescence intensity meter. By not adding a surfactant, it is possible to relatively measure the amount of the siRNA or the mRNA free in the solution without being encapsulated in the lipid nanoparticle.
Then, the fluorescence intensity obtained from the solution to which the surfactant was added obtained as described above was fluorescence intensity a, and the fluorescence intensity thus obtained from the solution to which no surfactant was added obtained as described above was fluorescence intensity b, and according to the expression (a−b)/a×100, the siRNA encapsulation rate (%) or the mRNA encapsulation rate (%) of the lipid nanoparticle was obtained. Each of fluorescence intensity a and fluorescence intensity b is a value obtained by subtracting a blank from the arithmetic average value of the results of three measurements for each solution. The blank was measured by carrying out the same operation on a well containing water containing no cell or lipid nanoparticle.

[3] = system: HT1080-EGFP (human/fibrosarcoma) cells; assay: Evaluation of knockdown effect (GFP assay), Cell experiment 1; type: cell-based; conditions: lipid nanoparticle containing siRNA against EGFP; fluorescence intensity with control cells without lipid nanoparticle set at 100
Protocol: A cell experiment was carried out by using HT1080-EGFP (human/fibrosarcoma) cells in order to evaluate lipid nanoparticles encapsulating an siRNA produced by using the lipids of the Examples and the Comparative Examples. These cells are cells provided with a green fluorescent protein gene (EGFP). The expression of EGFP can be easily confirmed by measuring the fluorescence intensity of a solution in which the cells are lysed, and thus by acting lipid nanoparticles encapsulating an siRNA that suppresses the expression of EGFP and observing any decrease in fluorescence intensity, the performance of the lipid nanoparticles used can be evaluated. Hereinafter, the procedure of the cell experiment will be shown.
(§1) A. Provision of Cells • (i) A liquid medium (DMEM/Ham's F12, FBS+, P/S+) (FBS: fetal bovine serum, P/S: antibiotic) was taken out from a refrigerator and temperature-controlled in an incubator set at 37° C. • (ii) A cryotube containing the cells was taken out from a −80° C. freezer and thawed at once in an incubator set at 37° C. • (iii) A stock solution of the thawed cells was collected in a capped test tube. • (iv) The tube containing the cells was washed with the liquid medium, and the wash was also collected in the test tube. • (v) The tube was subjected to a centrifuge to precipitate the cells. • (vi) The supernatant was aspirated, and the liquid medium was added and gently tapped to disperse the cells. • (vii) A small amount of the cells-dispersed liquid medium was collected, and the number of cells was observed and counted under a microscope. • (viii) The cells were seeded in a 24-well plate such that the number of cells was 2×10^4 cells per well. For the plate for an LDH assay described later, the cells were seeded in a 96-well plate such that the number of cells was 4×10^3 cells per well. • (ix) The 24-well plate or the 96-well plate was placed in an incubator, and the cells were cultured for 24 hours under conditions of 37° C. and 5% CO2.
The produced lipid nanoparticles were introduced into cells. • (i) Fetal bovine serum (FBS) was added to a liquid medium (FBS-, P/S-) temperature-controlled as in (i) of A above, in such a way as to reach 10%. • (ii) A 24-well plate was taken out from an incubator, and the liquid medium supernatant in the 24-well plate was aspirated and washed with phosphate buffered saline (PBS). • (iii) 400 μL of the liquid medium produced in (i) above was added to the washed 24-well plate. In addition, 100 μL of an LNP solution having an adjusted concentration was added. • (iv) The 24-well plate was placed in the incubator, and the cells were cultured (for 24 hours). • (v) After 24 hours, the liquid medium supernatant in the 24-well plate was aspirated, and 500 μL of a liquid medium containing 10% FBS (FBS+/P/S+) was added. • (vi) The 24-well plate was placed in the incubator, and the cells were cultured for 24 hours under conditions of 37° C. and 5% CO2.
By carrying out a GFP assay, the EGFP expression level in cells was measured to evaluate the effect of knocking down the green fluorescent protein gene (EGFP) by lipid nanoparticles. • (i) A 24-well plate was taken out from an incubator and washed with PBS. • (ii) A 1% octylglucoside solution to which a protease inhibitor was added was added in order to disrupt cells. Stirring with a pipette lysed the cells. • (iii) The cell lysate was transferred to an Eppendorf tube and subjected to a centrifuge. • (iv) 150 μL of the supernatant was collected and added to a plate for fluorescence measurement. • (v) The fluorescence intensity was measured under conditions of an excitation wavelength of 485 nm and a fluorescence wavelength of 535 nm with a plate reader (manufactured by TECAN, Infinite M200). The fluorescence intensity was calculated with the fluorescence intensity of control cells to which no lipid nanoparticle was added set at 100.

[4] = system: HT1080-EGFP (human/fibrosarcoma) cells; assay: Evaluation of toxicity: LDH assay; type: cell-based; conditions: lipid nanoparticle containing siRNA; absorbance relative to control cells without lipid nanoparticle set at 1.00
Protocol: as §1
The introduction of lipid nanoparticles into cells for an LDH assay described later was carried out as follows. • (i) A 96-well plate was taken out from an incubator. • (ii) The liquid medium supernatant in the 96-well plate was aspirated and washed with phosphate buffered saline (PBS). • (iii) 160 μL of a liquid medium containing 10% FBS (FBS+/P/S+) was added to the washed 96-well plate. In addition, 40 μL of an LNP solution having an adjusted concentration was added. • (iv) The 96-well plate was placed in the incubator, and the cells were cultured for 24 hours under conditions of 37° C. and 5% CO2.
For Examples 1 to 9, a CCK-8 assay or an LDH assay was carried out to measure the metabolic activity of viable cells and relatively quantify the number of surviving cells to evaluate the toxicity of lipid nanoparticles.
An LDH assay was carried out by using a viable cell counting kit (DOJINDO LABORATORIES, Cytotoxicity LDH Assay Kit-WST) as follows. • (i) 20 μL of a lysis buffer was added to each of positive control wells and incubated at 37° C. for 30 minutes in an incubator. • (ii) 100 μL of the supernatant was taken from each well and transferred to a 96-well plate for measurement. • (iii) 100 μL of the reagent mixture attached to the kit was added to all the wells, and a color reaction was carried out for 30 minutes at room temperature with exclusion of light. • (iv) 50 μL of the stop solution reagent attached to the kit was added to all the wells. • (v) The 96-well plate was measured under conditions of a measurement wavelength of 490 nm and a target wavelength of 630 nm with a plate reader (manufactured by TECAN, Infinite M200) to calculate the absorbance. The absorbance was calculated with the absorbance of control cells to which no lipid nanoparticle was added set at 1.00. When the obtained value was 0.50 or less, a rating of double-circle (excellent) was given, when the obtained value was more than 0.50 and 1.0 or less, a rating of circle (good) was given, when the obtained value was more than 1.0 and less than 6.0, a rating of triangle (fair) was given, and when the obtained value was 6.0 or more, a rating of X-mark (poor) was given.

Row | Zeta potential (mV) [1] [mV] | Encapsulation rate (%) [2] [%] | Particle size (nm) [1] [nm] | PDI [1] | Structure (SMILES) | GFP Assay [3] | LDH Assay [4]
1 | 27.8 | – | – | – | CCCCCCCC/C=C\CCCCCCCCC(CCCCCCC/C=C\CCCCCCCC)OC(=O)C(N)C(C)O (stereo not drawn) [Comparative Example 1, (9Z,27Z)-hexatriaconta-9,27-dien-18-yl 2-amino-3-hydroxybutanoate, reference compound] | – | –
2 | 26.5 | 99 | 147.5 | 0.063 | CCCCCCCC/C=C\CCCCCCCCC(CCCCCCC/C=C\CCCCCCCC)OC(=O)[C@@H](N)CCCCN (stereo partly drawn) [Comparative Example 4, (9Z,27Z)-hexatriaconta-9,27-dien-18-yl lysinate, reference compound] | 86 | –
3 | 50.8 | 100 | 324.5 | 0.731 | CCCCC/C=C\CCCC(CC/C=C\CCCCC)OC(=O)C(N)CCCCN (stereo not drawn) [Comparative Example 5, (6Z,14Z)-icosa-6,14-dien-10-yl lysinate, reference compound] | – | –
4 | 27.5 | 99 | 212.1 | 0.022 | CCCCCC/C=C\CCCCCCCCC(CCCCCCC/C=C\CCCCCC)OC(=O)C(N)CCCCN (stereo not drawn) [Comparative Example 6, (7Z,25Z)-dotriaconta-7,25-dien-16-yl lysinate, reference compound] | – | –
5 | 21.0 | 99 | 149.8 | 0.021 | CCCCCCCC/C=C\CCCCCCCCCCCCC(CCCCCCCCCCC/C=C\CCCCCCCC)OC(=O)[C@@H](N)CCCCN (stereo partly drawn) [Comparative Example 7, (9Z,35Z)-tetratetraconta-9,35-dien-22-yl lysinate, reference compound] | – | –
6 | 29.7 | 100 | 233.1 | 0.187 | CC/C=C\CCC(CCCCCCC/C=C\CCCCCC)OC(=O)[C@@H](N)CCCCN (stereo partly drawn) [Comparative Example 8, (3Z,15Z)-docosa-3,15-dien-7-yl lysinate, reference compound] | – | –
7 | 32.7 | 100 | 759.4 | 0.508 | CC/C=C\CCC(CCCCCCCCCCC/C=C\CCCCCCCC)OC(=O)[C@@H](N)CCCCN (stereo partly drawn) [Comparative Example 9, (3Z,19Z)-octacosa-3,19-dien-7-yl lysinate, reference compound] | – | –
8 | – | – | – | – | CCCCCCCC/C=C\CCCCCCCCC(CCCCCCC/C=C\CCCCCCCC)OC(=O)C(Cc1c[nH]cn1)NC(=O)C(N)CCCNC(=N)N (stereo not drawn) [Example 3, (9Z,27Z)-hexatriaconta-9,27-dien-18-ylarginylhistidinate] | 22 | ◯ (when the obtained value was more than 0.50 and 1.0 or less, a rating of circle (good) was given)
9 | 36.8 | 98 | 103.6 | 0.095 | CCCCC/C=C\C/C=C\CCCCCCCCC(CCCCCCC/C=C\C/C=C\CCCCC)OC(=O)C(NC(=O)C(N)CCCNC(=N)N)C(C)O (stereo not drawn) [Example 10, (6Z,9Z,27Z,30Z)-hexatriaconta-6,9,27,30-tetraen-18-yl 2-(2-amino-5-guanidinopentanamido)-3-hydroxybutanoate] | 11 | –
